Experimental data taken from paper PMC3481155, “AhR activation underlies the CYP1A autoinduction by A-998679 in rats” (Frontiers in Genetics, 2012).

How the values were obtained:
rat Cyp 2C6 = target: T1, rat Cyp 2C6 (Rattus norvegicus, UniProt P05178); assay: Recombinant rat Cyp phenotype profiling, 2C6; assay type: in vitro ADME; conditions: 60 min
T1 construct: purchased BD Gentest; host or cells: baculovirus infected insect cells
Method: (§1) Identification of the drug metabolizing enzymes (DMEs) of A-998679 was studied in cDNA expressed recombinant enzymes prepared from baculovirus infected insect cells over-expressing rat Cyp isoforms (BD Gentest, Woburn, MA) as listed in Table 2. Incubations were conducted in duplicate using Supersomes. The incubation mixture contained 100 pmol/ml of enzymes, except for Cyp1a1 (200 pmol/ml), 0.1 or 0.21 μM of [^3H]A-998679 in 100 mM phosphate buffer (pH 7.4). Reactions were initiated with the addition of NADPH at a final concentration of 1 mM and incubated at 37°C for 60 min. At the end of the incubation period, the incubations were terminated by the addition of acetonitrile/ethanol (50/50, v/v) solution. Insect control samples lacking expressed enzyme were used as negative control. The degree of metabolism of A-998679 was assessed by percent of parent remaining using the radio-HPLC method described below.
(§2) Radiolabeled components from the above assays were profiled following separation by HPLC with on line radioflow detector. The system consisted of an Agilent 1100 Series quaternary pump and autosampler connected to a Packard 500TR flow scintillation detector. The data were processed using the Radiomatic™ Flo-one® software v3.65. The scintillant (Perkin Elmer FLO-SCINT™ III) flow was maintained at 3 ml/min. […]

Cyp1a2 = Cyp1a2 mRNA in rat liver after 5 days of dosing (microarray, RT-PCR); assay type: in vivo
Method: (§3) All animal experiments were conducted in accordance with the Guiding Principles in the Use of Animals in Toxicology (http://www.toxicology.org/ai/air/air6.asp) and were approved by Abbott's Institutional Animal Care and Use Committee (IACUC). Male Sprague-Dawley rats [Crl:CD®(SD)IGS BR], weighing ~250 g at study initiation were obtained from Charles River Laboratories, Inc. (Wilmington, MA). Rats were housed singly in ventilated, stainless steel, wire-bottom hanging cages and fed non-certified Rodent Chow (Harlan Labs, Madison, WI), and water ad libitum and acclimated for at least 5 days after arrival. […] Serum clinical chemistry parameters were quantified using an Aeroset Clinical Chemistry Analyzer (Abbott Laboratories, Abbott Park, IL) and included alanine amino transferase (ALT), aspartate amino transferase (AST), gamma glutamyltransferase (GGT), and alkaline phosphatase (ALP) activities.
(§4) Frozen liver or jejunum were immediately added to 4 ml of TRIzol reagent (Invitrogen Life Technologies) and homogenized using a Polytron 300D homogenizer (Brinkman Instruments, Westbury, NY). […] Nucleic acid concentration was determined by OD 260 nm (Smart-Spec, Bio-Rad Laboratories, Hercules, CA), and RNA integrity was evaluated using an Agilent 2100 bioanalyzer (Agilent Technologies, Foster City, CA). […]

Cyp1a1 = Cyp1a1 mRNA in rat liver after 5 days of dosing (microarray, RT-PCR); assay type: in vivo
Method: as §3, §4

rat Cyp2b1 = target: T2, rat Cyp2b1 (Rattus norvegicus, UniProt P00176); assay: Recombinant rat Cyp phenotype profiling, 2B1; assay type: in vitro ADME; conditions: 60 min
T2 construct: purchased BD Gentest; host or cells: baculovirus infected insect cells
T2 sequence (P00176 whole entry): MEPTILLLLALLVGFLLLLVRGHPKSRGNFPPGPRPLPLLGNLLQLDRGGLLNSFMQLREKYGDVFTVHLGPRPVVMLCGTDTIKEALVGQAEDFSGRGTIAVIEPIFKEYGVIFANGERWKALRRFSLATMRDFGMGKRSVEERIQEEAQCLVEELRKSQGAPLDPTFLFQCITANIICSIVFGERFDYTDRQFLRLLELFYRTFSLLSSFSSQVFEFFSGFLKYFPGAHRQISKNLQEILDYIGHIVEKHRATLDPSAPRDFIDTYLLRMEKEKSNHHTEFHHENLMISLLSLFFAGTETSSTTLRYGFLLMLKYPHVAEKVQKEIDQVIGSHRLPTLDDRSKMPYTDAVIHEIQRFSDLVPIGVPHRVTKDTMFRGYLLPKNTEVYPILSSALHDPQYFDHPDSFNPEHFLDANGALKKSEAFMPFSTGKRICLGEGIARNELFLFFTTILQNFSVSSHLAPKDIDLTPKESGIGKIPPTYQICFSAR
Method: as §1, §2

[1] = 5 days of dosing, in at least one animal starting at the 100 mg/kg dose
[2] = 5 days, all doses (30, 100, 200 mg/kg/day)

T1 sequence (P05178 whole entry): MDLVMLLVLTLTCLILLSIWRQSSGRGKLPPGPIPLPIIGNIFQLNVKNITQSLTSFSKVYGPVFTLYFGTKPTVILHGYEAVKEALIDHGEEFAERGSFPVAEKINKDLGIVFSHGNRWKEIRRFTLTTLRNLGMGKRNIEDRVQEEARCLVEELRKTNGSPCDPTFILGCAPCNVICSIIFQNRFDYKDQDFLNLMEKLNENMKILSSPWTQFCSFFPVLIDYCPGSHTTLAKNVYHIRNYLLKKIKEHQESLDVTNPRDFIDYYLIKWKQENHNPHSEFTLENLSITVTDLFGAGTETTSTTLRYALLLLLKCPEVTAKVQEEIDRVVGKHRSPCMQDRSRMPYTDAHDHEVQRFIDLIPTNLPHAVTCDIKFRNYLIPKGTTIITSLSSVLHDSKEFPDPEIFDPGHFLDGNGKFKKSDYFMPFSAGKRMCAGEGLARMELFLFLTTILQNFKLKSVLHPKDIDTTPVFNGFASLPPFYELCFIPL

Compound: N#Cc1cccc(-c2noc(-c3cccnc3)n2)c1 [A-998679, 3-(5-pyridin-3-yl-1,2,4-oxadiazol-3-yl) benzonitrile]
- % parent remaining (rat Cyp 2C6; recombinant rat Cyp 2C6, 0.10 μM): 91.0%
- % parent remaining (rat Cyp 2C6; recombinant rat Cyp 2C6, 0.21 μM): 88.8%
- Cyp1a2 mRNA increase in rat liver (microarray) (Cyp1a2; [1]): 2–3 fold
- Cyp1a2 mRNA expression in rat liver (RT-PCR) (Cyp1a2; [2]): strongly induced
- Cyp1a1 mRNA increase in rat liver (microarray) (Cyp1a1; [1]): 10–100 fold
- Cyp1a1 mRNA expression in rat liver (RT-PCR) (Cyp1a1; [2]): strongly induced
- % parent remaining (rat Cyp2b1; recombinant rat Cyp 2B1, 0.10 μM): 87.0%
- % parent remaining (rat Cyp2b1; recombinant rat Cyp 2B1, 0.21 μM): 34.5%
